Tested on: MV-4-11 cells
Test: Gene expression microarray analysis (Affymetrix PrimeView) and GSEA
Type: cell-based, human
Set-up: RFU PODN (11730768_x_at) / Fold change /veh PODN (11730768_x_at) / RFU LINC00158 (11744669_a_at) / Fold change /veh LINC00158 (11744669_a_at) / RFU DUSP10 (11751237_a_at) / Fold change /veh DUSP10 (11751237_a_at) / RFU ID3 (11757404_x_at) / Fold change /veh ID3 (11757404_x_at) / RFU PLEKHG5 (11737974_s_at) / Fold change /veh PLEKHG5 (11737974_s_at) / RFU LRRC4B (11730491_at) / Fold change /veh LRRC4B (11730491_at) / RFU GIMAP4 (11747438_a_at) / Fold change /veh GIMAP4 (11747438_a_at) / RFU KRT8 (11758183_x_at) / Fold change /veh KRT8 (11758183_x_at) / RFU CNN1 (11734310_a_at) / Fold change /veh CNN1 (11734310_a_at) / RFU VPS37D (11726825_at) / Fold change /veh VPS37D (11726825_at) / RFU C10orf10 (11716522_x_at) / Fold change /veh C10orf10 (11716522_x_at) / RFU KIR2DL2 /// KIR2DL4 /// KIR2DL5A /// KIR2DL5B /// KIR2DS1 /// KIR2DS2 /// KIR2DS3 /// KIR2DS4 /// KIR3DL3 /// KIR3DL3 /// KIR3DS1 (11738374_at) / Fold change /veh KIR2DL2 /// KIR2DL4 /// KIR2DL5A /// KIR2DL5B /// KIR2DS1 /// KIR2DS2 /// KIR2DS3 /// KIR2DS4 /// KIR3DL3 /// KIR3DL3 /// KIR3DS1 (11738374_at) / RFU C1QL1 (11718748_at) / Fold change /veh C1QL1 (11718748_at) / RFU TMPRSS4 (11747572_a_at) / Fold change /veh TMPRSS4 (11747572_a_at) / RFU HAMP (11756126_x_at) / Fold change /veh HAMP (11756126_x_at) / RFU RNFT2 (11725882_a_at) / Fold change /veh RNFT2 (11725882_a_at) / RFU NR4A2 (11747474_a_at) / Fold change /veh NR4A2 (11747474_a_at) / RFU ABCC12 (11746883_a_at) / Fold change /veh ABCC12 (11746883_a_at) / RFU TMEM136 (11760407_x_at) / Fold change /veh TMEM136 (11760407_x_at) / RFU CLDN22 /// WWC2 (11732394_at) / Fold change /veh CLDN22 /// WWC2 (11732394_at) / RFU HLA-DPB1 (11760878_x_at) / Fold change /veh HLA-DPB1 (11760878_x_at) / RFU SPINT1 (11716480_a_at) / Fold change /veh SPINT1 (11716480_a_at) / RFU GAP43 (11754022_s_at) / Fold change /veh GAP43 (11754022_s_at) / RFU A4GNT (11735810_at) / Fold change /veh A4GNT (11735810_at) / RFU PRB3 (11715151_x_at) / Fold change /veh PRB3 (11715151_x_at) / RFU TUBB4B (11761932_at) / Fold change /veh TUBB4B (11761932_at) / RFU CAPN14 (11732068_a_at) / Fold change /veh CAPN14 (11732068_a_at) / RFU TMCC2 (11721928_a_at) / Fold change /veh TMCC2 (11721928_a_at) / RFU IRGQ (11745062_a_at) / Fold change /veh IRGQ (11745062_a_at) / RFU FAM174B (11720279_a_at) / Fold change /veh FAM174B (11720279_a_at) / RFU TMPRSS4 (11748680_a_at) / Fold change /veh TMPRSS4 (11748680_a_at) / RFU FAM212B (11763350_a_at) / Fold change /veh FAM212B (11763350_a_at) / RFU PLEKHG5 (11743358_a_at) / Fold change /veh PLEKHG5 (11743358_a_at) / RFU ZSCAN30 (11745921_a_at) / Fold change /veh ZSCAN30 (11745921_a_at) / RFU CMKLR1 (11741424_a_at) / Fold change /veh CMKLR1 (11741424_a_at) / RFU LOC101060620 /// MAPK8IP1 (11723275_at) / Fold change /veh LOC101060620 /// MAPK8IP1 (11723275_at) / RFU SPTSSB (11747773_x_at) / Fold change /veh SPTSSB (11747773_x_at) / RFU PRSS12 (11739890_at) / Fold change /veh PRSS12 (11739890_at) / RFU BIN1 (11741810_x_at) / Fold change /veh BIN1 (11741810_x_at) / RFU WNT11 (11732464_a_at) / Fold change /veh WNT11 (11732464_a_at) / RFU C10orf10 (11716521_a_at) / Fold change /veh C10orf10 (11716521_a_at) / RFU C5orf56 (11738089_at) / Fold change /veh C5orf56 (11738089_at) / RFU CYB561 (11721691_x_at) / Fold change /veh CYB561 (11721691_x_at) / RFU ANKRD19P (11752326_a_at) / Fold change /veh ANKRD19P (11752326_a_at) / RFU OR2T12 /// OR2T33 /// OR2T8 (11738714_s_at) / Fold change /veh OR2T12 /// OR2T33 /// OR2T8 (11738714_s_at) / RFU VCAN (11748164_a_at) / Fold change /veh VCAN (11748164_a_at) / RFU JSRP1 (11732532_at) / Fold change /veh JSRP1 (11732532_at) / RFU KRTAP10-11 (11738290_x_at) / Fold change /veh KRTAP10-11 (11738290_x_at) / RFU MYO3A (11730013_a_at) / Fold change /veh MYO3A (11730013_a_at) / RFU EBF3 (11725865_a_at) / Fold change /veh EBF3 (11725865_a_at) / RFU CAMK2N1 (11719241_x_at) / Fold change /veh CAMK2N1 (11719241_x_at) / RFU C5orf56 (11738088_a_at) / Fold change /veh C5orf56 (11738088_a_at) / RFU OLFML3 (11715873_a_at) / Fold change /veh OLFML3 (11715873_a_at) / RFU LOC100653217 /// NTM (11731650_a_at) / Fold change /veh LOC100653217 /// NTM (11731650_a_at) / RFU MAPK11 (11762145_a_at) / Fold change /veh MAPK11 (11762145_a_at) / RFU FIZ1 (11724087_x_at) / Fold change /veh FIZ1 (11724087_x_at) / RFU OASL (11726364_x_at) / Fold change /veh OASL (11726364_x_at) / RFU SOX15 (11748057_x_at) / Fold change /veh SOX15 (11748057_x_at) / RFU CD79A (11719716_a_at) / Fold change /veh CD79A (11719716_a_at) / RFU HIST1H1D (11736915_at) / Fold change /veh HIST1H1D (11736915_at) / RFU CASKIN2 (11723855_a_at) / Fold change /veh CASKIN2 (11723855_a_at) / RFU LOC730098 (11760151_x_at) / Fold change /veh LOC730098 (11760151_x_at) / RFU OR4N2 (11742367_at) / Fold change /veh OR4N2 (11742367_at) / RFU PRRT2 (11749266_a_at) / Fold change /veh PRRT2 (11749266_a_at) / RFU SNX32 (11753110_a_at) / Fold change /veh SNX32 (11753110_a_at) / RFU CDHR5 (11726645_a_at) / Fold change /veh CDHR5 (11726645_a_at) / RFU RCAN1 (11760418_a_at) / Fold change /veh RCAN1 (11760418_a_at) / RFU FAM167A (11723789_a_at) / Fold change /veh FAM167A (11723789_a_at) / RFU FAM26E (11764081_at) / Fold change /veh FAM26E (11764081_at) / RFU ISYNA1 (11749810_s_at) / Fold change /veh ISYNA1 (11749810_s_at) / RFU ACY1 (11761880_at) / Fold change /veh ACY1 (11761880_at) / RFU 11764098_at / Fold change /veh 11764098_at / RFU SAMD14 (11745864_x_at) / Fold change /veh SAMD14 (11745864_x_at) / RFU NPB (11741838_a_at) / Fold change /veh NPB (11741838_a_at) / RFU TMPRSS6 (11731388_a_at) / Fold change /veh TMPRSS6 (11731388_a_at) / RFU KRTAP10-2 (11738614_at) / Fold change /veh KRTAP10-2 (11738614_at) / RFU ARHGAP8 /// PRR5-ARHGAP8 (11727945_x_at) / Fold change /veh ARHGAP8 /// PRR5-ARHGAP8 (11727945_x_at) / RFU KRTAP5-7 /// NADSYN1 (11734609_at) / Fold change /veh KRTAP5-7 /// NADSYN1 (11734609_at) / RFU RASL12 (11751679_a_at) / Fold change /veh RASL12 (11751679_a_at) / RFU CDKN2B (11736163_a_at) / Fold change /veh CDKN2B (11736163_a_at) / RFU PRF1 (11729649_at) / Fold change /veh PRF1 (11729649_at) / RFU, ZNF638 /// ZNF638-IT1 / Fold change vs veh, ZNF638 /// ZNF638-IT1 / RFU, PANK3 / Fold change vs veh, PANK3 / RFU, SH3YL1 / Fold change vs veh, SH3YL1 / RFU, ZEB2 / Fold change vs veh, ZEB2 / RFU, NRIP1 / Fold change vs veh, NRIP1 / RFU, PTTG1IP / Fold change vs veh, PTTG1IP / RFU, CAPN2 / Fold change vs veh, CAPN2 / RFU, MED14 / Fold change vs veh, MED14 / RFU, SNORA58 / Fold change vs veh, SNORA58 / RFU, C1orf63 / Fold change vs veh, C1orf63 / RFU, LRRFIP1 / Fold change vs veh, LRRFIP1 / RFU, NDUFAF7 / Fold change vs veh, NDUFAF7 / RFU, SLC12A2 / Fold change vs veh, SLC12A2 / RFU, IBTK / Fold change vs veh, IBTK / RFU, ESF1 / Fold change vs veh, ESF1 / Fold change vs veh, TMEM50B / RFU, TAOK1 / Fold change vs veh, TAOK1 / RFU, ACBD3 / Fold change vs veh, ACBD3 / RFU, TMA16 / Fold change vs veh, TMA16 / RFU, RWDD3 / Fold change vs veh, RWDD3 / RFU, BCAT1 / Fold change vs veh, BCAT1 / RFU, EDEM3 / Fold change vs veh, EDEM3 / RFU, TMEM33 / Fold change vs veh, TMEM33 / RFU, WDR75 / Fold change vs veh, WDR75 / RFU, AHCTF1 / Fold change vs veh, AHCTF1 / RFU, TFRC / Fold change vs veh, TFRC / RFU, ZDHHC17 / Fold change vs veh, ZDHHC17 / RFU, NOM1 / Fold change vs veh, NOM1 / RFU, ARL8B / Fold change vs veh, ARL8B / RFU, ZBTB11 / Fold change vs veh, ZBTB11 / RFU, TAMM41 / Fold change vs veh, TAMM41 / RFU, KIAA1704 /// LOC100996395 / Fold change vs veh, KIAA1704 /// LOC100996395 / RFU, ING1 / Fold change vs veh, ING1 / RFU, TRMT61B / Fold change vs veh, TRMT61B / RFU, FUBP3 / Fold change vs veh, FUBP3 / RFU, TP53 / Fold change vs veh, TP53 / RFU, TNKS2 / Fold change vs veh, TNKS2 / RFU, ZFP14 / Fold change vs veh, ZFP14 / RFU, ACTR2 / Fold change vs veh, ACTR2 / RFU, PPP3R1 / Fold change vs veh, PPP3R1 / RFU, PIK3R1 / Fold change vs veh, PIK3R1 / RFU, HNRNPA1 / Fold change vs veh, HNRNPA1 / RFU, RNF170 / Fold change vs veh, RNF170 / RFU, ZNF28 / Fold change vs veh, ZNF28 / RFU, RNGTT / Fold change vs veh, RNGTT / RFU, OGT / Fold change vs veh, OGT / RFU, BRD1 / Fold change vs veh, BRD1 / RFU, MARS / Fold change vs veh, MARS / RFU, ZNF655 / Fold change vs veh, ZNF655 / RFU, FAHD1 / Fold change vs veh, FAHD1 / RFU, BDP1 / Fold change vs veh, BDP1 / RFU, LRRCC1 / Fold change vs veh, LRRCC1 / RFU, ARID1A / Fold change vs veh, ARID1A / RFU, ZNF146 / Fold change vs veh, ZNF146 / RFU, ZNF330 / Fold change vs veh, ZNF330 / RFU, GPN3 / Fold change vs veh, GPN3 / RFU, C9orf123 / Fold change vs veh, C9orf123 / RFU, N4BP2L2 / Fold change vs veh, N4BP2L2 / RFU, ARFIP1 / Fold change vs veh, ARFIP1 / RFU, FAM179B / Fold change vs veh, FAM179B / RFU, BCL10 / Fold change vs veh, BCL10 / RFU, UHRF1BP1L / Fold change vs veh, UHRF1BP1L / RFU, BET1 / Fold change vs veh, BET1 / RFU, CNOT2 / Fold change vs veh, CNOT2 / RFU, ZNF268 / Fold change vs veh, ZNF268 / Fold change vs veh, ZNF507 / RFU, DGCR2 / Fold change vs veh, DGCR2 / RFU, WDSUB1 / Fold change vs veh, WDSUB1 / Fold change vs veh, HSP90B1 /// MIR3652 / RFU, ADSS / Fold change vs veh, ADSS / RFU, GK / Fold change vs veh, GK / RFU, ZNF148 / Fold change vs veh, ZNF148 / RFU, TAF9 / Fold change vs veh, TAF9 / RFU, SLC1A5 / Fold change vs veh, SLC1A5 / RFU, SLMO2 / Fold change vs veh, SLMO2 / RFU, ABCC4 / Fold change vs veh, ABCC4 / RFU, LOC101060439 /// RAP1B / Fold change vs veh, LOC101060439 /// RAP1B / RFU, RFX7 / Fold change vs veh, RFX7 / RFU, GTPBP10 / Fold change vs veh, GTPBP10 / RFU, CNEP1R1 / Fold change vs veh, CNEP1R1 / RFU, BIVM-ERCC5 /// ERCC5 / Fold change vs veh, BIVM-ERCC5 /// ERCC5 / RFU, ILF3 / Fold change vs veh, ILF3 / RFU 11762660_at / Fold change /veh 11762660_at / RFU VCAN (11757783_s_at) / Fold change /veh VCAN (11757783_s_at) / RFU DDX43 (11728927_at) / Fold change /veh DDX43 (11728927_at) / RFU KRT8 (11758188_x_at) / Fold change /veh KRT8 (11758188_x_at) / RFU NKD1 (11759106_at) / Fold change /veh NKD1 (11759106_at) / RFU SRD5A1 (11742802_a_at) / Fold change /veh SRD5A1 (11742802_a_at) / RFU TPSAB1 /// TPSB2 (11721975_s_at) / Fold change /veh TPSAB1 /// TPSB2 (11721975_s_at) / RFU GSTM3 (11746129_a_at) / Fold change /veh GSTM3 (11746129_a_at) / RFU IL23R (11737362_x_at) / Fold change /veh IL23R (11737362_x_at) / RFU TMEM51 (11727254_a_at) / Fold change /veh TMEM51 (11727254_a_at) / RFU PIWIL2 (11732686_x_at) / Fold change /veh PIWIL2 (11732686_x_at) / RFU ORM1 (11744905_x_at) / Fold change /veh ORM1 (11744905_x_at) / RFU CCDC152 (11743942_at) / Fold change /veh CCDC152 (11743942_at) / RFU ECM1 (11717891_a_at) / Fold change /veh ECM1 (11717891_a_at) / RFU IL23R (11748794_a_at) / Fold change /veh IL23R (11748794_a_at) / RFU TNFAIP8L3 (11732012_x_at) / Fold change /veh TNFAIP8L3 (11732012_x_at) / RFU MBOAT4 (11741988_at) / Fold change /veh MBOAT4 (11741988_at) / RFU 11764193_at / Fold change /veh 11764193_at / RFU TMEM53 (11763286_at) / Fold change /veh TMEM53 (11763286_at) / RFU MAGEB2 (11727129_at) / Fold change /veh MAGEB2 (11727129_at) / RFU TMEM200A (11744735_a_at) / Fold change /veh TMEM200A (11744735_a_at) / RFU CCDC152 (11751479_a_at) / Fold change /veh CCDC152 (11751479_a_at) / RFU FAM211A (11726209_a_at) / Fold change /veh FAM211A (11726209_a_at) / RFU RGS16 (11746705_a_at) / Fold change /veh RGS16 (11746705_a_at) / RFU VCAN (11755009_s_at) / Fold change /veh VCAN (11755009_s_at) / RFU RHOB (11743442_s_at) / Fold change /veh RHOB (11743442_s_at) / RFU RGS16 (11720943_a_at) / Fold change /veh RGS16 (11720943_a_at) / RFU RGS16 (11720944_at) / Fold change /veh RGS16 (11720944_at) / RFU, VPS4B / Fold change vs veh, VPS4B / RFU, CREB1 / Fold change vs veh, CREB1 / RFU, DNAJC13 / Fold change vs veh, DNAJC13 / RFU, GNAQ / Fold change vs veh, GNAQ / RFU, CDK5R1 / Fold change vs veh, CDK5R1 / RFU, ZRANB3 / Fold change vs veh, ZRANB3 / RFU, CUL4A / Fold change vs veh, CUL4A / RFU, CCNY / Fold change vs veh, CCNY / RFU, UFL1 / Fold change vs veh, UFL1 / RFU, COG3 / Fold change vs veh, COG3 / RFU, DIAPH2 / Fold change vs veh, DIAPH2 / RFU, SKA2 / Fold change vs veh, SKA2 / RFU, AFF3 / Fold change vs veh, AFF3 / RFU, LMF1 / Fold change vs veh, LMF1 / RFU, IPO11 / Fold change vs veh, IPO11 / RFU, DFFB / Fold change vs veh, DFFB / RFU, FOXP1 / Fold change vs veh, FOXP1 / RFU, CARD8 / Fold change vs veh, CARD8 / RFU, STRN3 / Fold change vs veh, STRN3 / RFU, ADK / Fold change vs veh, ADK / RFU, RASSF2 / Fold change vs veh, RASSF2 / RFU, WIPF1 / Fold change vs veh, WIPF1 / RFU, LARP1B / Fold change vs veh, LARP1B / RFU, RASA1 / Fold change vs veh, RASA1 / RFU, RB1 / Fold change vs veh, RB1 / RFU, PPFIA1 / Fold change vs veh, PPFIA1 / RFU, MAT2A / Fold change vs veh, MAT2A / RFU, CCT5 / Fold change vs veh, CCT5 / RFU, WDR92 / Fold change vs veh, WDR92 / RFU, CUX1 / Fold change vs veh, CUX1 / RFU, TTC7A / Fold change vs veh, TTC7A / RFU, TMEM135 / Fold change vs veh, TMEM135 / RFU, DEPTOR / Fold change vs veh, DEPTOR / RFU, CPM / Fold change vs veh, CPM / RFU, DNAJB6 / Fold change vs veh, DNAJB6 / RFU, CACNA2D3 / Fold change vs veh, CACNA2D3 / RFU, DTX4 / Fold change vs veh, DTX4 / RFU, TFCP2 / Fold change vs veh, TFCP2 / RFU, GMCL1 /// GMCL1P1 / Fold change vs veh, GMCL1 /// GMCL1P1 / RFU, AEBP2 / Fold change vs veh, AEBP2 / RFU, SNHG1 /// SNORD22 /// SNORD25 /// SNORD26 /// SNORD27 /// SNORD28 /// SNORD29 /// SNORD31 / Fold change vs veh, SNHG1 /// SNORD22 /// SNORD25 /// SNORD26 /// SNORD27 /// SNORD28 /// SNORD29 /// SNORD31 / Fold change (Aza/veh), C12orf56 (ProbeSet 11735607_a_at) / Fold change (ACY-1035/veh), C12orf56 (ProbeSet 11735607_a_at) / Fold change (Aza/veh), FGFR1OP (ProbeSet 11751329_s_at) / Fold change (ACY-1035/veh), FGFR1OP (ProbeSet 11751329_s_at) / Fold change (Aza/veh), VPS36 (ProbeSet 11739960_a_at) / Fold change (ACY-1035/veh), VPS36 (ProbeSet 11739960_a_at) / RFU SYPL1 (11715823_x_at) / Fold change /veh SYPL1 (11715823_x_at) / RFU IGFBP7 (11715501_s_at) / Fold change /veh IGFBP7 (11715501_s_at) / RFU REEP3 (11722064_at) / Fold change /veh REEP3 (11722064_at) / RFU IGLL1 (11728026_x_at) / Fold change /veh IGLL1 (11728026_x_at): dose or concentration left out as unconfirmed
Settings: ProbeSet 11743929_at; LIST B

In the case of `Nc1ccc(-c2cccs2)cc1NC(=O)c1ccc2c(c1)cc(C1CC1)n2CCN1CCOCC1` [ACY-1035], the “Fold change vs veh, UHRF1BP1L” value is reported as 0.90.

— paper PMC5218480 (PLoS ONE, 2017)
